From patent publication US20170305943A1, “COMPOUNDS FOR THE TREATMENT OF BACTERIAL INFECTIONS” (priority 2014, published 2017)
In brackets after ≈: the same amount, converted by molar mass.

Columns and labels:
Assay in all cases: Bacterial Assay: Determination of Antibacterial Activity (MIC, broth microdilution or agar dilution)
Format in all cases: cell-based
[1] = test system: Clostridium difficile (Isolate ID ATCC 9689); conditions: Clostridioides difficile, ATCC9689, 48 h, read-out: C. difficile MIC Activity Range
Summary of the method: (§1)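 MICs were set by CLSI broth microdilution or agar dilution for anaerobes, read visually after 48 hours at 37° C. under anaerobic gas packs. Medium was reinforced clostridial medium with 0.1% defibrinated horse blood; values are binned as A ≦1.01, B >1.0-4.0, C >4.0-16 μg/mL.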

[2] = test system: Clostridium difficile (Isolate ID 027-01); conditions: Clostridioides difficile, 48 h, read-out: MIC (μg/mL) C. difficile (027-01)
Summary of the method: as §1

[3] = test system: Clostridium difficile (Isolate ID BI-9); conditions: Clostridioides difficile, 48 h, read-out: MIC (μg/mL) C. difficile (B-I9)
Summary of the method: as §1

Row | SMILES | MIC [1] [µg/mL] | MIC [2] [µg/mL] | MIC [3] [µg/mL]
1 | NC(=O)c1c(F)ccc(O[C@H](CO)c2nc(-c3ccc(C(F)(F)F)cc3)c(Br)o2)c1F (single isomer, unassigned) [Compound 47] | < 1.01 | 0.12 (≈ 0.237 µM) | 0.12 (≈ 0.237 µM)
2 | C#CCCCCCCCCCOc1ccc(F)c(C(N)=O)c1F [Compound 7, 2,6-difluoro-3-(undec-10-yn-1-yloxy)benzamide] | < 1.01 | 0.12 (≈ 0.371 µM) | 0.12 (≈ 0.371 µM)
3 | CCCCCCCCCOc1cccc(C(N)=O)c1F [Compound 8, 2-fluoro-3-(nonyloxy)benzamide] | < 1.01 | 0.5 (≈ 1.78 µM) | 0.25 (≈ 0.889 µM)
4 | C#CCCCCCCCCCOc1cccc(C(N)=O)c1F [Compound 9, 2-fluoro-3-(undec-10-yn-1-yloxy)benzamide] | < 1.01 | 1 (≈ 3.27 µM) | 0.5 (≈ 1.64 µM)
5 | COc1ccc(-c2csc(COc3ccc(F)c(C(N)=O)c3F)n2)cc1 [Compound 10, 2,6-difluoro-3-{[4-(4-methoxyphenyl)-1,3-thiazol-2-yl]methoxy}benzamide] | 1 to 4 (≈ 2.66 to 10.6 µM) | 4 (≈ 10.6 µM) | 2 (≈ 5.31 µM)
6 | NC(=O)c1c(F)ccc(OCc2nc(-c3ccc(Cl)cc3)cs2)c1F [Compound 11, 3-{[4-(4-chlorophenyl)-1,3-thiazol-2-yl]methoxy}-2,6-difluorobenzamide] | < 1.01 | 0.25 (≈ 0.657 µM) | 0.25 (≈ 0.657 µM)
7 | NC(=O)c1c(F)ccc(OCc2nc(-c3ccc(Cl)cc3)c(Br)s2)c1F [Compound 12, 3-{[5-bromo-4-(4-chlorophenyl)-1,3-thiazol-2-yl]methoxy}-2,6-difluorobenzamide] | < 1.01 | 1 (≈ 2.18 µM) | 1 (≈ 2.18 µM)
8 | NC(=O)c1c(F)ccc(OCc2nc(-c3ccc(C(F)(F)F)cc3)cs2)c1F [Compound 16, 2,6-difluoro-3-({4-[4-(trifluoromethyl)phenyl]-1,3-thiazol-2-yl}methoxy)benzamide] | < 1.01 | 0.5 (≈ 1.21 µM) | 0.5 (≈ 1.21 µM)
9 | NC(=O)c1c(F)ccc(OCc2nc(-c3ccc(OC(F)(F)F)cc3)cs2)c1F [Compound 17, 2,6-difluoro-3-({4-[4-(trifluoromethoxy)phenyl]-1,3-thiazol-2-yl}methoxy)benzamide] | < 1.01 | 0.185 (≈ 0.43 µM) | 0.25 (≈ 0.581 µM)
10 | NC(=O)c1c(F)ccc(OCc2nc(-c3ccc(Cl)cc3)ns2)c1F [Compound 19, 3-{[3-(4-chlorophenyl)-1,2,4-thiadiazol-5-yl]methoxy}-2,6-difluorobenzamide] | < 1.01 | 1 (≈ 2.62 µM) | 2 (≈ 5.24 µM)
11 | NC(=O)c1c(F)ccc(OCc2nc(-c3ccc(OC(F)(F)F)cc3)ns2)c1F [Compound 20, 2,6-difluoro-3-({3[4-(trifluoromethoxy)phenyl]-1,2,4-thiadiazol-5-yl}methoxy)benzamide] | < 1.01 | 0.06 (≈ 0.139 µM) | 0.06 (≈ 0.139 µM)
12 | N/C(=N\O)c1c(F)ccc(OCc2nc(-c3ccc(Cl)cc3)ns2)c1F [Compound 21, 3-{[3-(4-chlorophenyl)-1,2,4-thiadiazol-5-yl]methoxy}-2,6-difluoro-N′-hydroxybenzene-carboximidamide] | < 1.01 | 5 (≈ 12.6 µM) | 5 (≈ 12.6 µM)
13 | NC(=O)c1c(F)ccc(OC(CO)c2nc(-c3ccc(Cl)cc3)c(Br)o2)c1F (stereo not shown) [Compound 33, 3-{1-[5-bromo-4-(4-chlorophenyl)-1,3-oxazol-2-yl]-2-hydroxyethoxy}-2,6-difluorobenzamide] | < 1.01 | 0.12 (≈ 0.253 µM) | 0.5 (≈ 1.06 µM)
14 | CN(C)C(=O)OCC(Oc1ccc(F)c(C(N)=O)c1F)c1nc(-c2ccc(C(F)(F)F)cc2)c(Br)o1 (stereo not shown) [Compound 49, 2-{5-bromo-4-[4-(trifluoromethyl)phenyl]-1,3-oxazol-2-yl}-2-(3-carbamoyl-2,4-difluorophenoxy)ethyl dimethylcarbamate] | 1 to 4 (≈ 1.73 to 6.92 µM) | 2 (≈ 3.46 µM) | 2 (≈ 3.46 µM)
15 | CC(=O)OCC(Oc1cccc(C(N)=O)c1F)c1nc(-c2ccc(C(F)(F)F)cc2)c(Br)o1 (stereo not shown) [Compound 57, 2-{5-bromo-4-[4-(trifluoromethyl)phenyl]-1,3-oxazol-2-yl}-2-(3-carbamoyl-2-fluorophenoxy)ethyl acetate] | < 1.01 | 0.5 | 0.5
16 | COc1ncccc1CNC(=O)OCC(Oc1ccc(F)c(C(N)=O)c1F)c1nc(-c2ccc(C(F)(F)F)cc2)c(Br)o1 (stereo not shown) [Compound 74, 2-{5-bromo-4-[4-(trifluoromethyl)phenyl]-1,3-oxazol-2-yl}-2-(3-carbamoyl-2,4-difluorophenoxy)ethyl [(2-methoxypyridin-3-yl)methyl]carbamate] | < 1.01 | 0.5 (≈ 0.745 µM) | 0.5 (≈ 0.745 µM)
17 | Cn1cccc1CNC(=O)OCC(Oc1ccc(F)c(C(N)=O)c1F)c1nc(-c2ccc(C(F)(F)F)cc2)c(Br)o1 (stereo not shown) [Compound 80, 2-{5-bromo-4-[4-(trifluoromethyl)phenyl]-1,3-oxazol-2-yl}-2-(3-carbamoyl-2,4-difluorophenoxy)ethyl [(1-methyl-1H-pyrrol-2-yl)methyl]carbamate] | < 1.01 | 0.5 (≈ 0.777 µM) | 0.5 (≈ 0.777 µM)

Row | SMILES | MIC [1] [µg/mL] | MIC [2] [µg/mL] | MIC [3] [µg/mL]
18 | NC(=O)c1c(F)ccc(OCc2nc(-c3ccc(Cl)cc3)c(Br)o2)c1F [Compound 104, 3-{[5-bromo-4-(4-chlorophenyl)-1,3-oxazol-2-yl]methoxy}-2,6-difluorobenzamide] | < 1.01 | 0.12 (≈ 0.27 µM) | 0.12 (≈ 0.27 µM)
19 | NC(=O)c1c(F)ccc(OCc2nc(-c3ccc(OC(F)(F)F)cc3)c(Br)s2)c1F [Compound 105, 3-({5-bromo-4-[4-(trifluoromethoxy)phenyl]-1,3-thiazol-2-yl}methoxy)-2,6-difluorobenzamide] | < 1.01 | 0.5 (≈ 0.982 µM) | 1 (≈ 1.96 µM)
20 | CCCCCCCCCOc1ccc(F)c(/C(N)=N/O)c1F [Compound 106, 2,6-difluoro-N′-hydroxy-3-(nonyloxy)benzenecarboximidamide] | < 1.01 | 0.5 (≈ 1.59 µM) | 0.5 (≈ 1.59 µM)
21 | NC(=O)c1c(F)ccc(OCc2ccn(-c3ccc(OC(F)(F)F)cc3)n2)c1F [Compound 108, 2,6-difluoro-3-({1-[4-(trifluoromethoxy)phenyl]-1H-pyrazol-3-yl}methoxy)benzamide] | < 1.01 | 0.5 (≈ 1.21 µM) | 0.5 (≈ 1.21 µM)
22 | NC(=O)c1c(F)ccc(OCc2nc(-c3ccc(S(F)(F)(F)(F)F)cc3)ns2)c1F [Compound 110, 2,6-difluoro-3-({3-[4-(pentafluoro-lambda~6~- sulfanyl)phenyl]-1,2,4-thiadiazol-5-yl}methoxy)benzamide] | < 1.01 | 0.06 (≈ 0.127 µM) | 0.06 (≈ 0.127 µM)
23 | NC(=O)c1c(F)ccc(OCCc2nc(-c3ccc(OC(F)(F)F)cc3)cs2)c1F [Compound 111, 2,6-difluoro-3-(2-{4-[4-(trifluoromethoxy)phenyl]-1,3-thiazol-2-yl}ethoxy)benzamide] | < 1.01 | 0.25 (≈ 0.563 µM) | 0.25 (≈ 0.563 µM)
24 | NC(=O)c1c(F)ccc(OCc2nc(-c3ccc(S(F)(F)(F)(F)F)cc3)cs2)c1F [Compound 112, 2,6-difluoro-3-({4-[4-(pentafluoro-lambda~6~- sulfanyl)phenyl]-1,3-thiazol-2-yl}methoxy)benzamide] | < 1.01 | 0.12 (≈ 0.254 µM) | 0.12 (≈ 0.254 µM)
25 | NC(=O)c1c(F)ccc(OCCCOc2ccc(OC(F)(F)F)cc2)c1F [Compound 126, 2,6-difluoro-3-{3-[4-(trifluoromethoxy)phenoxy]propoxy}benzamide] | < 1.01 | 0.5 (≈ 1.28 µM) | 0.5 (≈ 1.28 µM)
26 | NC(=O)c1c(F)ccc(OCCCCOc2ccc(Cl)cc2)c1F [Compound 127, 3-[4-(4-chlorophenoxy)butoxy]-2,6-difluoro-benzamide] | < 1.01 | 0.25 (≈ 0.703 µM) | 0.25 (≈ 0.703 µM)
27 | NC(=O)c1c(F)ccc(OCCCCOc2ccc(OC(F)(F)F)cc2)c1F [Compound 128, 2,6-difluoro-3-{4-[4-(trifluoromethoxy)phenoxy]butoxy}benzamide] | < 1.01 | 0.06 (≈ 0.148 µM) | 0.12 (≈ 0.296 µM)
28 | NC(=O)c1c(F)ccc(OCc2nc(-c3ccc(Cl)nc3)cs2)c1F [Compound 201, 3-{[4-(6-chloropyridin-3-yl)-1,3-thiazol-2-yl]methoxy}-2,6-difluorobenzamide] | 1 to 4 (≈ 2.62 to 10.5 µM) |  | 
29 | NC(=O)c1c(F)ccc(OCc2cnn(-c3ccc(Cl)cc3)n2)c1F [Compound 202, 3-{[2-(4-chlorophenyl)-2H-1,2,3-triazol-4-yl]methoxy}-2,6-difluorobenzamide] | 1 to 4 (≈ 2.74 to 11 µM) |  | 
30 | COc1ccc(-c2nc(COc3ccc(F)c(C(N)=O)c3F)oc2-c2cccc(Cl)c2O)cc1 [Compound 204, 3-{[5-(3-chloro-2-hydroxyphenyl)-4-(4-methoxyphenyl)-1,3-oxazol-2-yl]methoxy}-2,6-difluorobenzamide] | 4 to 16 (≈ 8.22 to 32.9 µM) |  | 
31 | N#Cc1cc(Cl)ccc1-c1csc(COc2ccc(F)c(C(N)=O)c2F)n1 [Compound 206, 3-{[4-(4-chloro-2-cyanophenyl)-1,3-thiazol-2-yl]methoxy}-2,6-difluorobenzamide] | < 1.01 |  | 
32 | NC(=O)c1c(F)ccc(OCc2nc(-c3ccc(Cl)cc3)c(-c3cccc(O)c3)o2)c1F [Compound 210, 3-{[4-(4-chlorophenyl)-5-(3-hydroxyphenyl)-1,3-oxazol-2-yl]methoxy}-2,6-difluorobenzamide] | 4 to 16 (≈ 8.76 to 35 µM) |  | 
33 | NC(=O)c1c(F)ccc(OCc2nc(-c3ccc(C(F)(F)F)cc3)c(Br)s2)c1F [Compound 211, 3-({5-bromo-4-[4-(trifluoromethyl)phenyl]-1,3-thiazol-2-yl}methoxy)-2,6-difluorobenzamide] | 1 to 4 (≈ 2.03 to 8.11 µM) |  | 
34 | CC(Nc1ccc(F)c(C(N)=O)c1F)c1nc(-c2ccc(OC(F)(F)F)cc2)c(Br)o1 (stereo not shown) [Compound 212, 3-[(1-{5-bromo-4-[4-(trifluoromethoxy)phenyl]-1,3-oxazol-2-yl}ethyl)amino]-2,6-difluorobenzamide] | 1 to 4 (≈ 1.98 to 7.9 µM) |  | 
